For 63 molecules, EC50 results are on record in patent US12162867B2, “Inhibitors of RNA helicase DHX9 and uses thereof” (ACCENT THERAPEUTICS, INC., priority 2022, dated 2024).

Broadly, the EC50 is the concentration giving half of the maximal effect.

For one test, the system named is circBRIP1 in HCT116 cells. The test is described as follows: DHX9 circBRIP1 cellular target engagement SYBR Green assay (qPCR). The settings on record: Homo sapiens, HCT-116, circBRIP1, HCT116 cells; SyBr assay (marked ^+); read-out: DHX9 Cellular Target Engagement EC50. It counts as cell-based. A general note: Quantitative PCR measures a nucleic acid by following its amplification.
As for `CN(C)C(=O)N1CCN(c2ccc(-n3cc(C(=O)Nc4cc(Cl)cc(NS(C)(=O)=O)c4)cn3)nc2)CC1` [Example 89], the EC50 was 667 nM.

As to `CS(=O)(=O)Nc1cc(F)cc(NC(=O)c2cc(-c3ccccc3O)cs2)c1` [Example 114], the EC50 was determined as 1480 nM.

For the molecule `CS(=O)(=O)Nc1cc(Cl)cc(NC(=O)c2cnn([C@H]3CCC[C@H](O)C3)c2)c1` (single isomer, unassigned) [Example 152a], the EC50 is over 10000 nM.

As to `CS(=O)(=O)Nc1cc(Cl)cc(NC(=O)c2cc(C(=O)Nc3ccccc3)cs2)c1` [Example 166, N2-(3-chloro-5-(methylsulfonamido)phenyl)-N4-phenylthiophene-2,4-dicarboxamide], the EC50 came to 2390 nM.

For `CN(C)C(=O)Cc1cccnc1-c1csc(C(=O)Nc2cc(Cl)cc(NS(C)(=O)=O)c2)c1` [Example 221], the EC50 is 121 nM.

Turning to `Cc1cn2cc(C(=O)Nc3cc(Cl)cc(NS(C)(=O)=O)c3)cc2c(C)n1` [Example 322], the EC50 was over 10000 nM.

For `CS(=O)(=O)Nc1cc(Cl)cc(NC(=O)c2cc3cc(C(F)(F)F)ccc3s2)c1` [Example 326], the EC50 was over 10000 nM.

For the molecule `CS(=O)(=O)Nc1cc(Cl)cc(NC(=O)c2cnn(-c3ncccc3-c3cncnc3)c2)c1` [Example 387], the EC50 was over 10000 nM.

For `Cc1cc(C(=O)Nc2cc(F)cc(NS(C)(=O)=O)c2)c[nH]1` [Example 5], the EC50 is over 30000 nM.

On to `CS(=O)(=O)Nc1cc(Br)cc(NC(=O)c2cnn(-c3cc(C#N)ccn3)c2)c1` [Example 38], for which the EC50 was determined as 933 nM.

`Cc1cc(C(=O)Nc2cc(Cl)cc(NS(C)(=O)=O)c2)cn1-c1ccc(N2CCS(=O)(=O)CC2)cn1` [Example 285]: the concentration giving a half-maximal response (EC50) worked out at 503 nM.

For the molecule `Cc1ccc(C#N)cc1-n1cc(C(=O)Nc2cc(Br)cc(NS(C)(=O)=O)c2)cn1` [Example 53], the 50% effective concentration (EC50) is 4950 nM.

On to `CS(=O)(=O)Nc1cc(Cl)cc(NC(=O)c2cnn(-c3ccccc3-c3cncc(F)c3)c2)c1` [Example 257], for which the EC50 was 2610 nM.

With `CS(=O)(=O)Nc1cc(Cl)cc(NC(=O)c2cnn(-c3ncccc3OCc3ccccc3F)c2)c1` [Example 189], the EC50 came out at 308 nM.

Take `CS(=O)(=O)Nc1cc(Cl)cc(NC(=O)c2cc(-c3ccccc3)c[nH]2)c1` [Example 8]: the EC50 was determined as 5520 nM.

For `CCS(=O)(=O)Nc1cc(Cl)cc(NC(=O)c2cc(-c3cccnc3)cs2)c1` [Example 110], the EC50 stood at 2710 nM.

With `CS(=O)(=O)Nc1cc(Cl)cc(NC(=O)c2cc3ccc(Cl)cc3s2)c1` [Example 293], the EC50 was over 10000 nM.

For the molecule `COc1ccc2cc(C(=O)Nc3cc(Cl)cc(NS(C)(=O)=O)c3)sc2c1` [Example 327], the 50% effective concentration (EC50) amounted to 3540 nM.

For the molecule `CS(=N)(=O)Nc1cc(Br)cc(NC(=O)c2cc(-c3ccccn3)cs2)c1` (stereo not drawn) [Example 121, N-(3-bromo-5-(methylsulfonoamidimidamido)phenyl)-4-(pyridin-2-yl)thiophene-2-carboxamide], the half-maximal effective concentration (EC50) came to 5430 nM.

As to `CS(=O)(=O)Nc1cc(F)cc(NC(=O)c2cc(-c3ccccn3)cs2)c1` [Example 112, N-(3-fluoro-5-(methylsulfonamido)phenyl)-4-(pyridin-2-yl)thiophene-2-carboxamide], the EC50 was determined as 627 nM.

Regarding `CS(=O)(=O)Nc1cc(Cl)cc(NC(=O)c2cc3c(C(F)(F)F)cccn3c2)c1` [Example 302], the EC50 amounted to 1930 nM.

As to `CS(=O)(=O)Nc1cc(Cl)cc(NC(=O)c2nc(-c3ccccc3)c[nH]2)c1` [Example 9], the EC50 is 30000 nM.

With `Cc1sc(C(=O)Nc2cc(Cl)cc(NS(C)(=O)=O)c2)cc1-c1cn(Cc2ccccc2)nn1` [Example 235], the EC50 came out at 645 nM.

As for `CS(=O)(=O)Nc1cc(Cl)cc(NC(=O)c2cc(-c3cccc(F)c3)cs2)c1` [Example 108], the concentration for a half-maximal effect (EC50) amounted to 6650 nM.

Consider `CS(=O)(=O)Nc1cc(Cl)cc(NC(=O)c2cc3c(C(F)(F)F)cccc3s2)c1` [Example 323], for which the concentration giving a half-maximal response (EC50) is over 10000 nM.

`CS(=O)(=O)Nc1cc(Cl)cc(NC(=O)c2cc(-c3ncccc3CC(=O)N3CCC3)cs2)c1` [Example 382]: the concentration giving a half-maximal response (EC50) was found to be 640 nM.

For the molecule `Cc1ccc2cc(C(=O)Nc3cc(Cl)cc(NS(C)(=O)=O)c3)cn2c1` [Example 300], the 50% effective concentration (EC50) was 3940 nM.

In the case of `CS(=O)(=O)Nc1cc(Cl)cc(NC(=O)c2cc3cc(F)ccc3s2)c1` [Example 295], the EC50 is over 10000 nM.

As to `CS(=O)(=O)Nc1cc(Br)cc(NC(=O)c2cnn(-c3ccccc3CO)c2)c1` [Example 161, N-(3-bromo-5-(methylsulfonamido)phenyl)-1-(2-(hydroxymethyl)phenyl)-1H-pyrazole-4-carboxamide], the EC50 came to 1420 nM.

Turning to `CS(=O)(=O)Nc1cc(Br)cc(NC(=O)c2cc(-n3cccn3)cs2)c1` [Example 60], the EC50 came to 201 nM.

Regarding `CS(=O)(=O)Nc1cc(Cl)cc(NC(=O)c2cnn(-c3ccc(N4CCn5ccnc5C4)cn3)c2)c1` [Example 192], the EC50 was 3600 nM.

Take `CS(=O)(=O)Nc1cc(Cl)cc(NC(=O)c2cnn(-c3ncccc3S(C)(=O)=O)c2)c1` [Example 199]: the EC50 was over 10000 nM.

`CS(=O)(=O)Nc1cc(Cl)cc(NC(=O)c2cnn(C3CC4(COC4)C3)c2)c1` [Example 128]: the concentration for a half-maximal effect (EC50) is over 10000 nM.

Regarding `CS(=O)(=O)Nc1cc(Cl)cc(NC(=O)c2csc(-c3ccccc3)c2)c1` [Example 124, N-(3-chloro-5-(methylsulfonamido)phenyl)-5-phenylthiophene-3-carboxamide], the EC50 was determined as 5140 nM.

Turning to `CC(C)(O)COc1cccnc1-n1cc(C(=O)Nc2cc(Cl)cc(NS(C)(=O)=O)c2)cn1` [Example 195], the EC50 came to 751 nM.

`CS(=O)(=O)Nc1cc(Cl)cc(NC(=O)c2cc(N3CCNCC3)cs2)c1` [Example 244]: the concentration giving a half-maximal response (EC50) is over 10000 nM.

As to `CS(=O)(=O)Nc1cc(Cl)cc(NC(=O)c2cnn(-c3ncccc3OCc3ccn[nH]3)c2)c1` [Example 253], the EC50 was 9230 nM.

With `CS(=O)(=O)Nc1cc(Cl)cc(NC(=O)c2cc(-c3ncc(F)cn3)cs2)c1` [Example 338], the concentration giving a half-maximal response (EC50) worked out at 126 nM.

For the molecule `CS(=O)(=O)Nc1cc(Cl)cc(NC(=O)c2cnn(C3CC4(C3)CN(CC(F)(F)F)C4)c2)c1` [Example 312], the EC50 was 9970 nM.

As for `CCn1cc(C(=O)Nc2cc(Cl)cc(NS(C)(=O)=O)c2)cc1-c1ccccc1` [Example 79, N-(3-chloro-5-(methylsulfonamido)phenyl)-1-ethyl-5-phenyl-1H-pyrrole-3-carboxamide], the half-maximal effective concentration (EC50) came to 1120 nM.

As to `CS(=O)(=O)Nc1cc(Cl)cc(NC(=O)c2cc3cccnn3c2)c1` [Example 292], the EC50 was found to be 2300 nM.

For the molecule `CN1CCN(c2cnc(-n3cc(C(=O)Nc4cc(Cl)cc(NS(C)(=O)=O)c4)cn3)c(OCc3cccnc3)c2)CC1=O` [Example 193], the EC50 is over 10000 nM.

Take `CS(=O)(=O)Nc1cc(Cl)cc(NC(=O)c2cc(-c3ccccc3)co2)c1` [Example 7]: the EC50 turned out to be 24200 nM.

With `CCS(=O)(=O)Nc1cc(Cl)cc(NC(=O)c2cc(-c3ncc(F)cn3)c(C)s2)c1` [Example 344], the EC50 was determined as 153 nM.

`CS(=O)(=O)Nc1cc(Cl)cc(NC(=O)c2cc(-c3ccccc3)cs2)c1` [Example 75]: the EC50 was 1640 nM.

`CS(=O)(=O)Nc1cc(Cl)cc(NC(=O)c2cnn(-c3ncccc3Oc3ncccn3)c2)c1` [Example 196]: the EC50 came to 6730 nM.

On to `CS(=O)(=O)Nc1cc(Cl)cc(NC(=O)c2cc(-c3ccc(N4CC5(COC5)C4)cn3)n(CC(F)(F)F)c2)c1` [Example 278], for which the concentration giving a half-maximal response (EC50) stood at 251 nM.

In the case of `Cc1cccnc1-c1csc(C(=O)Nc2cc(F)cc(NS(C)(=O)=O)c2)c1` [Example 334], the EC50 is 251 nM.

On to `Cn1cc(C(=O)Nc2cc(Cl)cc(NS(C)(=O)=O)c2)nc1-c1ccccc1` [Example 155, N-(3-chloro-5-(methylsulfonamido)phenyl)-1-methyl-2-phenyl-1H-imidazole-4-carboxamide], for which the EC50 was found to be 3610 nM.

For `CCS(=O)(=O)Nc1cc(Cl)cc(NC(=O)c2cc(C)n(-c3ccc(N4CCOCC4)cn3)c2)c1` [Example 249], the 50% effective concentration (EC50) came to 29.5 nM.

As to `CS(=O)(=O)Nc1cc(Cl)cc(NC(=O)c2cnn(-c3ncccc3OCc3nccs3)c2)c1` [Example 205], the EC50 was 841 nM.

For the molecule `CN1CC2(CC(n3cc(C(=O)Nc4cc(Cl)cc(NS(C)(=O)=O)c4)cn3)C2)C1` [Example 311], the EC50 turned out to be 3980 nM.

For `CS(=O)(=O)Nc1cc(F)cc(NC(=O)c2cc(-c3ccccc3)cs2)c1` [Example 73], the half-maximal effective concentration (EC50) amounted to 11200 nM.

Staying with this test, now noted: Homo sapiens, HCT-116, circBRIP1, HCT116 cells; ^+ SyBr assay was used; read-out: DHX9 Cellular Target Engagement EC50.
For the molecule `CS(=O)(=O)Nc1cc(Cl)cc(NC(=O)c2cc(C(=O)N3CCCCC3)n(-c3ccccn3)c2)c1` [Example 644], the EC50 is 8720 nM.

Turning to `Cc1sc(C(=O)Nc2cc(Cl)cc(NS(C)(=O)=O)c2)cc1-c1ncc(F)cc1-c1ccn(C)c(=O)c1` [Example 605], the EC50 was found to be 5330 nM.

Consider `COc1cnn(-c2csc(C(=O)Nc3cc(Cl)cc(NS(C)(=O)=O)c3)c2)c1` [Example 435], for which the EC50 worked out at 1150 nM.

Regarding `CS(=O)(=O)Nc1cc(Cl)cc(NC(=O)c2cc(C3CC3)n(-c3ncc(F)cn3)c2)c1` [Example 451], the EC50 was determined as 1050 nM.

Regarding `CCS(=O)(=O)Nc1cc(Cl)cc(NC(=O)c2cc(-c3ncc(F)cn3)c(C3CC3)s2)c1` [Example 449], the EC50 was 860 nM.

As to `Cc1cc(C(=O)Nc2cc(Cl)cc(NS(C)(=O)=O)c2)cn1-c1ncc(Cl)cn1` [Example 578], the EC50 turned out to be 491 nM.

For the molecule `COc1cc(F)cnc1-n1cc(C(=O)Nc2cc(Cl)cc(NS(C)(=O)=O)c2)cc1C` [Example 393], the EC50 worked out at 133 nM.

`Cc1cc(C(=O)Nc2cc(Cl)cc(NS(C)(=O)=O)c2)cn1-c1ccc(N(C)C2CCOC2)cn1` (stereo not drawn) [Example 674]: the EC50 was 28.9 nM.

Turning to `CS(=O)(=O)Nc1cc(Cl)cc(NC(=O)c2cnn(-c3c(F)cccc3OCc3cnco3)c2)c1` [Example 721], the EC50 came out at 1570 nM.

The test is the same for the next values; noted with them: Homo sapiens, HCT-116, read-out: DHX9 Cellular Target Engagement EC50.
As to `CS(=O)(=O)Nc1cc(Cl)cc(NC(=O)c2cnn(-c3ncccc3NCc3ccccc3)c2)c1` [Example 168, 1-(3-(benzylamino)pyridin-2-yl)-N-(3-chloro-5-(methylsulfonamido)phenyl)-1H-pyrazole-4-carboxamide], the EC50 was 2130 nM.
